Values quoted from earlier work in US20180153872A1, “HETEROARYL CARBONITRILES FOR THE TREATMENT OF DISEASE” (OPKO Health, Inc., priority 2015, published 2018).

Biological target: NK1 receptor (Homo sapiens, UniProt P25103)
Conditions: Table I compounds; cited from earlier work

NK1 receptor, sequence (P25103 whole entry, species assumed): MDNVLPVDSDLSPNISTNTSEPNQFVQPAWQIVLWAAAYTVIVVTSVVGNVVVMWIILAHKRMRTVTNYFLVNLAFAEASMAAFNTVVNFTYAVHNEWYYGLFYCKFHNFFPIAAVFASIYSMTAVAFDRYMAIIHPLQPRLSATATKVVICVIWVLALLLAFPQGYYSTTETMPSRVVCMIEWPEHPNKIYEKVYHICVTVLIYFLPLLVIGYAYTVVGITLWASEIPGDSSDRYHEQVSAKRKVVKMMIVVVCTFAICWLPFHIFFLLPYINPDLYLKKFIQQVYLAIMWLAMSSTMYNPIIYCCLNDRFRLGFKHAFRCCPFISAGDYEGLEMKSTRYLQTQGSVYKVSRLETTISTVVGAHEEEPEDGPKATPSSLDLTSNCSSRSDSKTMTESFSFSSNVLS

`C[C@@H](OC[C@@]1(c2ccccc2)CCC(CO)(n2cn[nH]c2=O)CN1)c1cc(C(F)(F)F)cc(C(F)(F)F)c1` (stereo partly drawn) [Compound 23] and `C[C@@H](OC[C@@]1(c2ccccc2)CC[C@](CNS(C)(=O)=O)(n2cn[nH]c2=O)CN1)c1cc(C(F)(F)F)cc(C(F)(F)F)c1` [Compound 15] are within 1.5-fold of each other in Ki: 120 pM for the first, 130 pM for the second.

Going from `C[C@@H](OC[C@@]1(c2ccccc2)CCC(C#N)(N2CCC2=O)CN1)c1cc(C(F)(F)F)cc(C(F)(F)F)c1` (stereo partly drawn) [Compound 9] to `C[C@@H](OC[C@@]1(c2ccccc2)CCC(C#N)(N2CCOC2=O)CN1)c1cc(C(F)(F)F)cc(C(F)(F)F)c1` (stereo partly drawn) [Compound 2], the Ki falls from 180 pM to 120 pM (1.5-fold).

Going from `C[C@@H](OC[C@@]1(c2ccccc2)CCC(C(N)=O)(n2cnnc2)CN1)c1cc(C(F)(F)F)cc(C(F)(F)F)c1` (stereo partly drawn) [Compound 10] to `C[C@@H](OC[C@@]1(c2ccccc2)CCC(CO)(n2cnnc2)CN1)c1cc(C(F)(F)F)cc(C(F)(F)F)c1` (stereo partly drawn) [Compound 12], the Ki falls from 100 pM to 50 pM (2-fold). The second binds more tightly here.

`CC(=NO)C1(n2cn[nH]c2=O)CCC(COC(C)c2cc(C(F)(F)F)cc(C(F)(F)F)c2)(c2ccccc2)NC1` (stereo not drawn) [Compound 54] and `CCC(=O)C1(n2cn[nH]c2=O)CC[C@@](CO[C@H](C)c2cc(C(F)(F)F)cc(C(F)(F)F)c2)(c2ccccc2)NC1` (stereo partly drawn) [Compound 19] are within 1.5-fold of each other in Ki: 120 pM for the first, 100 pM for the second.

Tested on: pruritus
Conditions: several patients with pruritic drug reactions to antineoplastic drugs; cited from earlier work

For `C[C@@H](O[C@H]1OCCN(Cc2n[nH]c(=O)[nH]2)[C@H]1c1ccc(F)cc1)c1cc(C(F)(F)F)cc(C(F)(F)F)c1` [aprepitant], the “pruritus on the visual analogue scale (VAS)” value is listed as “decrease in pruritus on the visual analogue scale”.
